The results in this text go back to article PMC6264310, “Synthesis and Pharmacological Activity of Diterpenylnaphthoquinone Derivatives” (Molecules, 2011).

For one data set, the system named is AGS cells. Description: Basal cytotoxicity, neutral red uptake assay, AGS. The class given is cell-based. The conditions noted are these: Homo sapiens, confluent cultures, 24 h, read-out: IC50 ± SEM, AGS. On the procedure:
(§1) 3.6. Cytotoxicity Assay
(§2) The human cell lines MRC-5 normal lung fibroblasts (ATCC CCL-171), AGS gastric adenocarcinoma cells (ATCC CRL-1739), and Hep G2 hepatocellular carcinoma cells (ATCC HB-8065) were obtained from the American Type Culture Collection (ATCC, Manassas, VA, USA). The cells were grown as monolayers in the following media: MRC-5 and Hep G2 in minimum essential Eagle’s medium (MEM), with Earle’s salts, 2.0 mM L-glutamine (Sigma Chemical Co.) and 2.2 g/L sodium bicarbonate (Sigma Chemical Co.), supplemented with 10% heat-inactivated fetal bovine serum (FBS), 100 IU/mL penicillin, and 100 µg/mL streptomycin in a humidified incubator with 5% CO2 in air at 37 °C. Cell passage was maintained between 10 and 16 for MRC-5 and between 79 and 82 for Hep G2 cells. The medium was changed every 2 days. Culture media, antibiotics, and FBS were obtained from Invitrogen Corp. Human gastric adenocarcinoma cells AGS (ATCC CRL-1739) were grown as monolayers in Ham F-12 medium containing 1.0 mM L-glutamine and 1.5 g/L sodium bicarbonate, supplemented with 10% heat-inactivated FBS, 100 IU/mL penicillin, and 100 µg/mL streptomycin in a humidified incubator with 5% CO2 in air at 37 °C. Cell passage was maintained between 42 and 48. The medium was changed every 2 days.
(§3) Confluent cultures of the different cell lines were treated with medium containing the compounds at concentrations ranging from 1 up to 1,000 µM. The antisecretory drug lansoprazole was used as reference compound. The substances were first dissolved in DMSO and then in the corresponding culture medium supplemented with 2% FBS. The final concentration of DMSO in the test medium and controls was 1%. The cells were exposed for 24 h to test medium with or without the compound (control). Each concentration was tested in quadruplicate together with the control and repeated three times in separate experiments. At the end of the incubation the neutral red uptake assay was performed.

The next data set relates to Hep G2 cells. As to the kind of experiment: Basal cytotoxicity, neutral red uptake assay, Hep G2. It counts as cell-based. The conditions noted are these: Homo sapiens, HepG2, Hep G2, confluent cultures, 24 h, read-out: IC50 ± SEM, Hep G2. Here is the method: as §1, §2, §3
Data set [1] in a line: Basal cytotoxicity, cell lines not separated in the text. The conditions noted are these: human; stated in text without cell line. It counts as cell-based. Here is the method: as §1
The human cell lines MRC-5 normal lung fibroblasts (ATCC CCL-171), AGS gastric adenocarcinoma cells (ATCC CRL-1739), and Hep G2 hepatocellular carcinoma cells (ATCC HB-8065) were obtained from the American Type Culture Collection (ATCC, Manassas, VA, USA). The cells were grown as monolayers in the following media: MRC-5 and Hep G2 in minimum essential Eagle’s medium (MEM), with Earle’s salts, 2.0 mM L-glutamine (Sigma Chemical Co.) and 2.2 g/L sodium bicarbonate (Sigma Chemical Co.), supplemented with 10% heat-inactivated fetal bovine serum (FBS), 100 IU/mL penicillin, and 100 µg/mL streptomycin in a humidified incubator with 5% CO2 in air at 37 °C. Cell passage was maintained between 10 and 16 for MRC-5 and between 79 and 82 for Hep G2 cells. The medium was changed every 2 days. Culture media, antibiotics, and FBS were obtained from Invitrogen Corp. Human gastric adenocarcinoma cells AGS (ATCC CRL-1739) were grown as monolayers in Ham F-12 medium containing 1.0 mM L-glutamine and 1.5 g/L sodium bicarbonate, supplemented with 10% heat-inactivated FBS, 100 IU/mL penicillin, and 100 µg/mL streptomycin in a humidified incubator with 5% CO2 in air at 37 °C. Cell passage was maintained between 42 and 48. The medium was changed every 2 days. […]

For another data set, the system named is MRC-5 fibroblasts. As to the kind of experiment: Basal cytotoxicity, neutral red uptake assay, MRC-5. The class given is cell-based. The conditions noted are these: Homo sapiens, MRC5, MRC-5, confluent cultures, 24 h, read-out: IC50 ± SEM, Fibroblasts. On the procedure: as §1, §2, §3
Data set [2] has as its system HCl-EtOH-induced gastric lesions. Description: HCl-EtOH-induced gastric lesion model in mice. The class given is in vivo. On the procedure:
3.5. HCl-EtOH-Induced Ulcer Model in Mice
The gastroprotective activity of the compounds was assessed in the EtOH-HCl-induced gastric lesion model. Male Swiss albino mice weighing 30 ± 3 g were used. The animals were fed on certified Champion diet with free access to water under standard conditions of 12 h dark-light period, 50% relative humidity, and 22 °C room temperature. The mice were randomly distributed into groups of 7–14 animals each and fasted for 24 h with free access to water before the oral administration of test samples by gavage. The purity of the tested compounds was higher than 95% by NMR analysis. To keep the animal numbers to a minimum, dose-response studies were performed with lapachol at 5, 10 and 50 mg/kg to set the conditions for single-dose comparison of gastroprotective effect. The tested compounds, lansoprazole (20 mg/kg) or the vehicle (12% Tween 80, 10 mL/kg) were administered orally by gavage. After 50 min, all groups were orally treated with 0.2 mL of a solution containing 60% EtOH-0.3 M HCl for gastric lesion induction. Animals were sacrificed by cervical dislocation 1 h after the administration of EtOH-HCl, and the stomachs excised and inflated by injection of 5% formalin (1 mL). The ulcerated stomachs were fixed in 5% formalin for 30 min and opened along the greater curvature. The length (mm) of each lesion was measured, and the lesion index expressed as the sum of the length of all lesions. Based on previous studies on the parent diterpenes, comparison of the new compounds 1–12 was carried out at a single oral dose of 5 mg/kg. The protocols were approved by the Universidad de Talca Institutional Animal Care and Use Committee, which follows the recommendations of the Canadian Council on Animal Care. Tween 80 and lansoprazole (>98% purity by HPLC) were purchased from Sigma-Aldrich.
Results were expressed as the mean ± SEM. In all experiments, statistical differences between several treatments and their respective control were determined by one-way ANOVA with Student-Newman-Keuls post-hoc test. The level of significance was set at P < 0.05.

[3] abbreviates: Mus musculus, 1 h, mice, single oral dose of 5 mg/kg, read-out: Protected stomachs (number of stomachs completely protected from any visible bleeding) (converted).
[4] abbreviates: Mus musculus, 1 h, mice, single oral dose of 5 mg/kg, read-out: Protection (%).
The mark [5] stands for this setting: mice, single oral dose of 5 mg/kg.

Usually IC50 stands for the concentration that inhibits the measured activity by half. With `C=C1CCC2[C@](C)(CCC[C@]2(C)C(=O)OC)[C@H]1CC[C@@H](C)CC(=O)OC1=C(CCC(C)C)C(=O)C2=C(CCCC2)C1=O` (stereo partly shown) [Compound 6, Dihydroprenyl-5,6,7,8-tetrahydrolapachoyl junicedrate methyl ester], the half-maximal inhibitory concentration (IC50) in the data set on AGS cells, in the data set on Hep G2 cells and in the data set with MRC-5 fibroblasts was above 1000 µM in each case. For the same compound, the IC50 at 24 h in data set [1] was above 1000 µM. Also, the responders at 5 mg/kg in data set [2] (setting [3]) is 37.5%. Besides, the inhibition in vivo at 5 mg/kg in data set [2] (setting [4]) came out at 74%. Also, the “Lesion index (mm) Mean ± SEM” value in data set [2] (setting [5]) is 6.5 ± 2.7 mm.

With `CC1=C(CC[C@@H](C)CC(=O)OC2=C(CCC(C)C)C(=O)c3ccccc3C2=O)[C@@]2(C)CCC[C@](C)(C(=O)O)C2CC1` (stereo partly shown) [Compound 9, Dihydroprenyl lapachoyl Δ8(9) junicedrate], the IC50 with AGS cells is 294 ± 15 µM; in the data set with Hep G2 cells, above 1000 µM; in the data set with MRC-5 fibroblasts it was 341 ± 17 µM. Further, the responders at 5 mg/kg in data set [2] (setting [3]) is 0%. Besides, the inhibition in vivo at 5 mg/kg in data set [2] (setting [4]) was 64%. Further, the “Lesion index (mm) Mean ± SEM” value in data set [2] (setting [5]) was 15.7 ± 4.5 mm.

Turning to `COC(=O)[C@@]1(C)CCC[C@]2(C)C(CC[C@@H](C)CC(=O)OC3=C(CCC(C)C)C(=O)c4ccccc4C3=O)=C(C)CCC12` (stereo partly shown) [Compound 10, Dihydroprenyl lapachoyl Δ8(9) junicedrate methyl ester], the results for the IC50 in the data set with AGS cells, in the data set on Hep G2 cells and in the data set on MRC-5 fibroblasts were 162 ± 10 µM, above 1000 µM and above 1000 µM, respectively. In data set [2] (setting [3]), the responders at 5 mg/kg is 33.3%. Besides, the inhibition in vivo at 5 mg/kg in data set [2] (setting [4]) was found to be 76%. For the same compound, in data set [2] (setting [5]), the “Lesion index (mm) Mean ± SEM” value is 10.2 ± 3.5 mm.

As to `CC(C)=CCC1=C(OC(=O)C[C@H](C)CCC2[C@@H](C)CCC3[C@]2(C)CCC[C@]3(C)C(=O)O)C(=O)c2ccccc2C1=O` (stereo partly drawn) [Compound 11, Lapachoyl 17β-dihydrojunicedrate], the 50% inhibitory concentration (IC50) is 114 ± 7 µM with AGS cells, 54.5 ± 5 µM with Hep G2 cells and 336 ± 15 µM in the data set on MRC-5 fibroblasts. In addition, the responders at 5 mg/kg in data set [2] (setting [3]) was 0%. Moreover, the inhibition in vivo at 5 mg/kg in data set [2] (setting [4]) came to 6%. Besides, the “Lesion index (mm) Mean ± SEM” value in data set [2] (setting [5]) is recorded as 23.5 ± 3.6 mm.

For the compound `COC(=O)[C@@]1(C)CCC[C@]2(C)C(CC[C@@H](C)CC(=O)OC3=C(CC=C(C)C)C(=O)c4ccccc4C3=O)[C@@H](C)CCC21` (stereo partly drawn) [Compound 12, Lapachoyl 17β-dihydrojunicedrate methyl ester], the figures for the IC50 in the data set with AGS cells, in the data set with Hep G2 cells and in the data set with MRC-5 fibroblasts were 323 ± 16 µM, 290 ± 9 µM and 926 ± 35 µM, respectively. Besides, the responders at 5 mg/kg in data set [2] (setting [3]) is 0%. Besides, in data set [2] (setting [5]), the “Lesion index (mm) Mean ± SEM” value is 27.4 ± 6.8 mm.

Regarding `Cc1c(OCC(F)(F)F)ccnc1C[S+]([O-])c1nc2ccccc2[nH]1` (stereo not shown) [Lansoprazole, lansoprazole, reference compound], the IC50 in the data set on AGS cells worked out at 162 ± 6 µM; with Hep G2 cells, 221 ± 9 µM; in the data set on MRC-5 fibroblasts it was 306 ± 11 µM. For the same compound, in data set [2] (Mus musculus, 1 h, mice, oral, 20 mg/kg, read-out: Protected stomachs (number of stomachs completely protected from any visible bleeding) (converted)), the responders at 20 mg/kg is 66.7%. In addition, the inhibition in vivo at 20 mg/kg in data set [2] (Mus musculus, 1 h, mice, oral, 20 mg/kg, read-out: Protection (%)) is 73%. In data set [2] (mice, oral, 20 mg/kg), the “Lesion index (mm) Mean ± SEM” value is recorded as 9.4 ± 1.2 mm.

`CC(C)=CCC1=C(O)C(=O)c2ccccc2C1=O` [Lapachol (IV), 2-hydroxy-3-(3-methyl-2-butenyl)-[1,4]-naphthoquinone, reference compound]: the results for the IC50 with AGS cells, with Hep G2 cells and in the data set on MRC-5 fibroblasts were 382 ± 15 µM, 55 ± 3 µM and above 1000 µM, respectively. Also, the “Gastroprotective effect compared with the vehicle control (Tween 80)” value in data set [2] (mice, 5, 10 and 50 mg/kg, data not shown) is recorded as “did not present a statistically significant effect”.

Regarding `CC1=C(CC[C@@H](C)CC(=O)O)[C@@]2(C)CCC[C@](C)(C(=O)O)C2CC1` (stereo partly shown) [Δ8(9) junicedric acid (II), Δ8(9) Junicedric acid, reference compound], the values for the concentration for half-maximal inhibition (IC50) with AGS cells, in the data set on Hep G2 cells and in the data set with MRC-5 fibroblasts were 343 ± 22 µM, above 1000 µM and 214 ± 32 µM, respectively. For the same compound, in data set [2] (setting [3]), the responders at 5 mg/kg is 44.4%. Also, the inhibition in vivo at 5 mg/kg in data set [2] (setting [4]) stood at 79%. In addition, the “Lesion index (mm) Mean ± SEM” value in data set [2] (setting [5]) is 5.3 ± 2.4 mm.
